Experiment [1] concerns intracellular zinc ions in HT-29 cells. The experiment can be described thus: Chelation of intracellular zinc in HT-29 cells, Zinquin fluorescence. The conditions noted are these: HT-29 with or without pre-loading with 35 μM ZnCl2, 30 min. Type of experiment: cell-based, human. How it is done: To determine the chelation property of compound 3 with intracellular zinc ions, HT-29 cells, with or without pre-loaded with 35 μM ZnCl2 were treated with compound 3, a known zinc chelator TPEN or vehicle control (DMSO), and intracellular free zinc was determined by measuring Zinquin fluorescence as described in the preceding Example (FIG. 37). HT-29 cells (4×10^5 cells/group) were pre-treated with 35 μM ZnCl2 for 20 min, followed by addition of indicated concentrations of compound 3 or TPEN and 10 μM Zinquin for 30 min at 37° C., and the fluorescence count was measured (FIG. 37A). For measurement of chelation of endogenous zinc ions in HT-29 cells, HT-29 cells (1.5×10^6 cells/group) were treated with indicated concentrations of compound 3 and 10 μM Zinquin for 30 min at 37° C., and the fluorescence count was measured (FIG. 37B).

For experiment [2], the system named is human leukemia CCRF-CEM cells. The experiment can be described thus: Cell cycle analysis by flow cytometry, CCRF-CEM. It counts as cell-based. Conditions: 0.25-1 μM, 24 hours. How it is done: To test the ability of compounds of Formula I to block cell cycle progression, compound 3 was incubated with human colon carcinoma HT-29 or human leukemia CCRF-CEM cells to determine alterations in populations of cells at different stages of the cell cycle using flow cytometric analysis. HT-29 cells were maintained as described in Example 13. CCRF-CEM cells used in this example and subsequent examples were maintained as suspension cells in a growth medium; RPMI-1640 medium (Sigma, St. Louis, Mo.), supplemented with 2 mM L-glutamine (Gibco, Grand Island, N.Y.), 10% fetal bovine serum (FBS) (Multicell, WISENT Inc. St-Bruno, QC), antibiotic-antimycotic (Multicell), at 37° C. in a 5% CO2-humidified incubator.
The assay was carried out as follows. For HT-29 cells, 1×10^6 cells in 10 mL volume of the growth medium were seeded in 100 mm dishes. For CCRF-CEM cells, 3×10^6 cells in 10 mL volume of the growth medium were seeded in 25 cm^2 flask. […] The fluorescence of stained cells was analyzed using FACScan flow cytometer and the Cell Quest program (BD Biosciences, San Jose, Calif.). Data were evaluated using Modfit software (Verity software House, Topsham, Me.). Values were determined by gate analysis of flow cytometric plots. […]

Experiment [3] relates to p21. Briefly: p21 mRNA in HT-29 tumour xenografts, RT-PCR. Type of experiment: in vivo, CD-1 female nude mice. Conditions: HT-29 xenograft, versus vehicle. How it is done:
The ability of compound 3 to modulate expression of p21 in vivo was determined using the HT-29 colon tumour xenograft model as described in Example 26. The expression of p21 mRNA was analyzed by real-time polymerase chain reaction analysis using the comparative CT method as described in Example 30.

Experiment [4] has as its system KLF4. Briefly: KLF4 mRNA in HT-29 tumour xenografts, RT-PCR. It counts as in vivo, CD-1 female nude mice. How it is done: The ability of compound 3 to modulate expression of KLF4 in HT-29 colon tumour xenograft was determined as follows. Groups of 10 CD-1 female nude mice (6-7 weeks) were injected in the lower mid back with human colon adenocarcinoma cells HT-29 cells (3×10^6 cells in 0.1 ml PBS) subcutaneously. […] After the treatment period, the animals were sacrificed, the tumours excised, and total RNA was extracted from 30 mg of tumour tissue using Rneasy Mini kit (QIAGEN, Valencia, Calif.). The expression of KLF4 mRNA was analyzed by real-time polymerase chain reaction using the comparative CT method as described in Example 19. […]
To examine the effect of compound 3-mediated changes in KLF4 and Cyclin D1 expressions in vivo, the expressions of respective genes in xenograft tissues of vehicle control (Lutrol) and compound 3-treated HT-29 colon cancer cell-transplanted mice were analyzed by RT-PCR (FIG. 46). Briefly, KLF4 and Cyclin D1 gene expression in HT-29 xenograft tissues after 14 days treatment with compound 3 was measured as follows. […] Total RNA was extracted and gene expression level was determined by RT-PCR. […]
The tumor regression efficacy of compound 3 was assessed in compound 3-treated HT-29-transplanted athymic mice (FIG. 54A), and correlated with gene expressions of MTF-1, KLF4 and Cyclin D1 in HT-29 xenograft tissues (FIG. 54B). […]

The values below come from patent publication US8148392B2, “2-indolyl imidazo [4,5-d] phenanthroline derivatives and their use in the treatment of cancer” (Lorus Therapeutics Inc., priority 2005, dated 2012).

“Also recorded” adds a separate entry of the source.

Consider `Cc1[nH]c2ccccc2c1-c1nc2c3cccnc3c3ncccc3c2[nH]1` [Compound 3], for which, in experiment [1], the “intracellular free zinc (Zinquin fluorescence)” value was “Dose-dependent decrease in both pre-loaded zinc and endogenous zinc levels”. Also, in experiment [2], the cell cycle progression result is on record as “induced a block in cell cycle progression at the G1 phase”. The “p21 expression in tumour xenografts” value in experiment [3] was “induced the expression of p21”. In addition, in experiment [4] (50 mg/kg/d, 35 days, versus vehicle), the “induction of KLF4 in tumour xenografts” value is reported as “approximately 1.5 fold”. In addition, the “KLF4 gene expression in xenograft tissue, change” value in experiment [4] (100 mg/kg i.p., 14 days or 2 cycles of 5 days) was “increase in KLF4 gene; also recorded: significant increase in KLF4”.
